Source: BindingDB's records for doi:10.1021/jm030050p (Johnson & Johnson Pharmaceutical Research & Development, 2003)
Structures can show the parent of a compound that is named as a salt.

Biological target: Trypsin (Bos taurus)
Assay: In vitro inhibition of bovine trypsin.

Row | Ki | SMILES
1 | 16 nM | CC(=O)N1C[C@H](O)C[C@H]1C(=O)NC(CCCN)C(=O)c1nc2ccccc2s1 (some centres not stated) [1-Acetyl-4-hydroxy-pyrrolidine-2-carboxylic acid [4-amino-1-(benzothiazole-2-carbonyl)-butyl]-amide; TFA]
2 | 38 nM | COS(=O)(=O)N1CCC[C@H]1C(=O)N[C@@H](CCCNC(=N)N)C(=O)c1nc2ccccc2s1 [2-[1-(Benzothiazole-2-carbonyl)-4-guanidino-butylcarbamoyl]-pyrrolidine-1-sulfonic acid methyl ester; TFA]
